Measured values as given in patent US10624871B2, “Bismuth(III) compounds and methods thereof” (priority 2016, dated 2020).

Assays:
[1] = system: E. coli (NDM-1+); assay: Time kill assay; assay type: cell-based; conditions: combination 16 μg mL^−1 MER and 32 μg mL−1 CBS, endpoint 24 hrs
Method: Time kill assay was used to further explore the synergy between MER and Bi(III) compounds which were represented by CBS herein. In a typical assay, the concentrations of the compounds used in this test represent as follows: 16 μg mL^−1 MER, 32 μg mL−1 CBS. Bacteria were cultured for overnight and diluted 1:250 into LB broth at 37° C. for 3 hrs to reach log phase. The initial bacterial concentration was adjusted to ˜10^7 CFU mL^−1 according to standard curve. Tested compounds either alone or in combination was added to 20 mL of freshly prepared bacterial solution in a 50 ml tube, and incubate at 37° C. LB broth with no compounds served as a positive control. Aliquots of […] suspension were withdrawn after different time intervals (0, 1, 2, 4, 6, 8, and 24 hrs). Bacterial concentrations were estimated from colony counts by serial dilution in phosphate-buffered saline (PBS) and plating on LB agar. All assays were triplicated and performed three times in different days. Data from three independent experiments were averaged and plotted as log10 CFU mL^−1 versus time (h) for each time point over 24 hrs as shown in FIG. 12.

[2] = system: C. freundii (NDM-1+); assay: Microdilution MIC and MBC assay, FICI; assay type: cell-based; conditions: Bi(III) compound at 32 μg mL^−1, C. feudii (NDM-1+)
[3] = system: E. coli cells (NDM+); assay: Resistance study, mutation frequency and MPC; assay type: cell-based
Text: Given the very notion of MIC, all susceptible bacterial cells will be suppressed or killed by a dose above it. However, bacterial population is often large; an infection will likely contain first-step mutants with lowed susceptibility. Thus, the dose of compounds at MIC will adversely amplify the population of those less-susceptible mutants.^26 Thus mutant prevention concentration (MPC), defined as a compound concentration that suppresses the growth of first-step resistant mutant in large quantity of susceptible bacterial population, together with mutant prevention index (MPI=MPC/MIC), is introduced to estimate the mutant prevention ability of exemplary compound combination.
For a typical test, E. coli cells (NDM^+) at 1˜2×10^10 CFU were spread onto LB agar containing combinations of MER and CBS at identical concentrations. All the plates were incubated at 37° C. Upon incubation for 48 hrs, up to 4 colonies were picked and re-cultured from any plates with observable colonies, followed by the measurement of their MIC values. Any MICs of MER that were higher than the original values (16 μg mL^−1) were determined as mutant colony. The concentration that restricted the growth of mutant colonies was determined as MPC.

[4] = system: E. coli (NDM-1+); assay: In vitro cell infection assay in MDCK cells; assay type: cell-based
Method: To further evaluate the antimicrobial efficacy of CBS in combination with MER, we exploited the in vitro bacterial infection model in mammalian cell. Typically, MDCK cells were cultured in minimum essential Media (MEM) supplemented with fetal bovine serum (FBS, 10%) and grown at 37° C. in the 5% CO2 humidified atmosphere for three days. The MDCK cells were then washed three times with phosphate buffer saline (PBS) solution, liberated with trypsin-EDTA (0.25%) and re-suspended by culture medium. About 500 μL of re-suspended cells were seeded in 24-well plates and incubated as described above for 48 hrs to ensure confluency, resulting in about 1.0×10^5 cells per well by typan blue assay. The freshly grown logarithmic E. coli (NDM-1^+) bacterial cells were washed with PBS for three times and re-suspended in MEM/10% FBS. The density was adjusted to 2×10^7 CFU mL^−1. Then 500 μL of bacterial suspension was added to each well and substituted for the previous MDCK culture medium. […]
For those cell-invaded bacteria experiments, the infected cells were incubated in culture medium supplemented with 100 μg mL^−1 ciprofloxacin for 1 h to remove extracellular bacteria. […] The assay was performed in triplicate, repeated three times and the results were expressed as average ±SD.

[5] = system: E. coli (NDM-1+); assay: Microdilution MIC and MBC assay, checkerboard FICI; assay type: cell-based; conditions: Bi(III) compound at 32 μg mL^−1, E. coli (NDM-1+)
[6] = system: E. coli (IMP-4+); assay: Microdilution MIC and MBC assay, FICI; assay type: cell-based; conditions: Bi(III) compound at 32 μg mL−1, E. coli (IMP-4+)
[7] = biological target: NDM-1 (Klebsiella pneumoniae, UniProt C7C422); assay: Hydrolysis rates of meropenem by native NDM-1 and Bi-bound NDM-1; assay type: biochemical; set-up: unit not given here; conditions: MER hydrolysis by Bi-bound NDM-1
Sequence of NDM-1 (C7C422 whole entry, looked up): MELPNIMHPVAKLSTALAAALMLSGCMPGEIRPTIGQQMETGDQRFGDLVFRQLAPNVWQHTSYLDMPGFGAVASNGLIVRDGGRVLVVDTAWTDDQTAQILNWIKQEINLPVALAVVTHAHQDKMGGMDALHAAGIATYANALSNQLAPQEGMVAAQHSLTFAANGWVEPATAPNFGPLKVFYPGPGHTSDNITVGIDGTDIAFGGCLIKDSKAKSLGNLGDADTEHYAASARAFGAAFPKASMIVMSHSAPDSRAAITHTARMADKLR

[8] = system: K. pneumonia (NDM-1+); assay: Microdilution MIC and MBC assay, FICI; assay type: cell-based; conditions: Bi(III) compound at 32 μg mL^−1, K. pneumonia (NDM-1+)

O=C([O-])CC([O-])(CC(=O)[O-])C(=O)[O-].O=C([O-])CC([O-])(CC(=O)[O-])C(=O)[O-].[Bi+3].[Bi+3].[K+] [Complex 10, colloidal bismuth subcitrate]
lowering of bacteria density versus single components [1]: more than 1000 fold
MBC of MER with Bi(III) compound [2]: 1 µg/mL
MIC of MER with Bi(III) compound [2]: 0.5 µg/mL
mutation frequency ([3]; MER with CBS at 32, MIC multiple 0.5): >5.22 × 10^−8
mutation frequency ([3]; MER with CBS at 32, MIC multiple 1): 4.10 × 10^−8
mutation frequency ([3]; MER with CBS at 32, MIC multiple 2): 3.28 × 10^−9
mutation frequency ([3]; MER with CBS at 64, MIC multiple 0.5): 1.23 × 10^−8
mutation frequency ([3]; MER with CBS at 64, MIC multiple 1): 1.15 × 10^−9
mutation frequency ([3]; MER with CBS at 128, MIC multiple 0.5): 9.84 × 10^−10
mutation frequency ([3]; MER with CBS at 256, MIC multiple 0.5): 1.31 × 10^−9
lowering of intracellular bacterial density compared with mere MER, cell-invaded model ([4]; MER (2×MIC) and CBS): 9.22 fold
bacterial load, cell-associated model ([4]; MER in the presence of CBS (32 μg mL^−1)): ≤ 10^4 CFU
MBC of MER with Bi(III) compound [5]: 4 µg/mL
MIC of MER with Bi(III) compound [5]: 2 µg/mL
MBC of MER with Bi(III) compound [6]: 8 µg/mL
MIC of MER with Bi(III) compound [6]: 4 µg/mL
Vmax [7]: 0.26 ± 0.01
MBC of MER with Bi(III) compound [8]: 8 µg/mL
MIC of MER with Bi(III) compound [8]: 4 µg/mL
